e = 2'-O-(2-methoxyethyl) (MOE); d = 2'-deoxy (DNA)
Key:
[1] = Effect on HDL composition in huCETP transgenic LDL receptor knockout mice (Example 10); type: in vivo; details: HDL fraction; for FC % (free cholesterol component of HDL) / PL % (phospholipid component of HDL) / Pro % (protein component of HDL) / TG % (triglyceride component of HDL) / CE % (cholesteryl ester component of HDL): CETP transgenic LDLr−/− mouse model; for CE % (cholesteryl ester component of HDL): calculated as (total cholesterol−free cholesterol)×1.67; for S/C Ratio: surface components (Pro, FC, PL) to core components (CE, TG)
Source text: In human CETP transgenic mice, the bulk of the cholesterol in plasma is associated with HDL and, in this model, cholesteryl ester (CE) transferred from HDL to VLDL/LDL by CETP is rapidly cleared by the LDL receptor (LDLr) (Zhou, H. et al., Biochim Biophys. Acta. 1761: 14821488, 2006). The human CETP transgenic, LDLr knockout mouse model used in this example is an animal model for cardiovascular disease. In this model, clearance of LDL is delayed due to the absence of LDLr leading to the inability of the mice to clear CE via the LDL pathway (Plump, A. S. et al., Arterioscler. Thromb. Vasc. Biol. 19: 1105-1110, 1999). This human CETP transgenic, LDLr knockout mouse is helpful in assessing the effect of antisense inhibition of CETP on HDL composition as the model has a proatherogenic lipoprotein profile where most of the cholesterol is found in VLDL and LDL.
Male transgenic mice were maintained on a 12-hour light/dark cycle and were fed ad libitum the Western diet (TD88137; 42% cal from fat, 0.2% cholesterol; Harlan Laboratories, Indianapolis, Ind.). Animals were acclimated for at least 7 days in the research facility before initiation of the experiment and were maintained on this diet throughout the study period. Antisense oligonucleotides (ASOs) were prepared in buffered saline (PBS) and sterilized by filtering through a 0.2 micron filter. Oligonucleotides were dissolved in 0.9% PBS for injection.
Another group received subcutaneous injections of control oligonucleotide ISIS 141923 at a dose of 15 mg/kg/week for 6 weeks. One group of mice received subcutaneous injections of PBS for 6 weeks. The PBS-injected group served as the control group to which treatment groups were compared.
At the end of the treatment period, plasma samples were taken for further analysis.
The VLDL+IDL, LDL and HDL lipoprotein sub-fractions were separated by ultracentrifugation, based on their relative densities. Pooled plasma samples from all the groups of […] each was added to a 2 mL Beckman Quick-Seal centrifuge tube and the density adjusted to 1.019 g/mL with potassium bromide (KBr). The samples were then spun in a Beckman TL-100 ultracentrifuge for 4 hours at 100,000 rpm at 4 degrees Celsius. The top of the tube containing the VLDL+IDL sub-fraction was sliced off and collected.
The bottom fraction was collected in a new tube; the density was re-adjusted to 1.063 g/ml with KBr and re-spun at 100,000 rpm at 4 degrees Celsius for 5 hours to concentrate the LDL sub-fraction. The top of the tube containing the LDL sub-fraction was collected. Once again, the bottom fraction was placed in a new tube and the density was now adjusted to 1.21 g/ml with KBr to concentrate the HDL sub-fraction. The tubes were spun at 100,000 rpm at 4 degrees Celsius for 6 hours. The HDL sub-fraction was finally collected. All of the lipoprotein sub-fractions were dialyzed overnight in PBS to remove excess KBr.
The sub-fractions were then assayed for total cholesterol and triglyceride (TG) using enzymatic assays from Roche (Basel, Switzerland). Phospholipid (PL) and free cholesterol (FC) were measured using enzymatic assays from Wako Chemicals USA (Richmond, Va.). Protein (Pro) concentration was measured by Fisher Scientific's BCA assay (Pittsburgh, Pa.). Cholesteryl ester (CE) was calculated as (total cholesterol−free cholesterol)×1.67 (CE is cholesterol plus a fatty acid, the 1.67 adjustment takes into account the increase in mass the fatty acid will add (Rudel L L et al, JCI 100 (1); 74-83)). The S/C ratio is the ratio of the surface components (Pro, FC, and PL) to the core components (CE and TG).
Additionally, the S/C ratio is increased, indicating a shift to a smaller HDL particle, after antisense oligonucleotide inhibition of CETP. Accordingly, in this model, inhibiting the CETP-mediated transfer of TG to HDL, and CE from HDL, leads to the formation of smaller, denser, and CE rich HDL.

human CETP mRNA = experiment: Liver CETP mRNA in huCETP transgenic mice, normal or cholesterol-enriched chow (Example 6); type: in vivo; details: 50 mg/kg s.c. twice per week for 6 weeks, relative to PBS control
Protocol: Male huCETP transgenic mice were maintained on a 12-hour light/dark cycle. One group of mice was fed ad libitum normal Purina mouse chow and a second group was fed 0.5% cholesterol-enriched chow (Harlan Teklad TD.97234, Harlan Laboratories, Indianapolis, Ind.). Animals were acclimated for at least 7 days in the research facility before initiation of the experiment. Antisense oligonucleotides (ASOs) were prepared in buffered saline (PBS) and sterilized by filtering through a 0.2 micron filter. Oligonucleotides were dissolved in 0.9% PBS for injection.
(§1) The normal chow-fed mice were divided into three treatment groups. The cholesterol-enriched chow-fed mice were divided into three treatment groups. […] One chow-fed group and one cholesterol-enriched chow-fed group received subcutaneous injections of saline twice weekly for 6 weeks. The saline-injected groups served as the control groups to which the corresponding oligonucleotide-treated groups were compared.
Twenty four hours after the final dose, the animals were sacrificed and liver tissue was isolated. Liver RNA was isolated for real-time PCR analysis of CETP. The primer probe set hCETP was used to measure CETP levels. As presented in Table 16, treatment with antisense oligonucleotides reduced CETP mRNA expression. The RNA expression levels were normalized to murine Cyclophilin. The results are expressed as percent inhibition of CETP mRNA, relative to the PBS control. There was no difference in inhibition of CETP mRNA levels in normal chow-fed and cholesterol-enriched chow fed mice.

[2] = Liver function, plasma ALT and AST (Example 6); type: in vivo, mice; details: 50 mg/kg s.c. twice per week
Source text: as §1
Plasma concentrations of ALT (alanine transaminase) and AST (aspartate transaminase) at weeks 0, 3 and 6 were measured and the results are presented in Tables 18 and 19 expressed in IU/L.

[3] = Organ weights (Example 6); type: in vivo, mice; details: 50 mg/kg s.c. twice per week for 6 weeks, end of study
Source text: as §1

| Substance | FC % (free cholesterol component of HDL) [1] [%] | PL % (phospholipid component of HDL) [1] [%] | Pro % (protein component of HDL) [1] [%] | TG % (triglyceride component of HDL) [1] [%] | CE % (cholesteryl ester component of HDL) [1] [%] | S/C Ratio [1] | Percent inhibition of liver CETP mRNA expression (human CETP mRNA; Cholesterol chow) [%] | Percent inhibition of liver CETP mRNA expression (human CETP mRNA; Normal chow) [%] | Alanine transaminase levels ([2]; Cholesterol chow, Week 0) [IU/L] | Aspartate transaminase levels ([2]; Cholesterol chow, Week 0) [IU/L] | Alanine transaminase levels ([2]; Cholesterol chow, Week 3) [IU/L] | Aspartate transaminase levels ([2]; Cholesterol chow, Week 3) [IU/L] | Alanine transaminase levels ([2]; Cholesterol chow, Week 6) [IU/L] | Aspartate transaminase levels ([2]; Cholesterol chow, Week 6) [IU/L] | Alanine transaminase levels ([2]; Normal chow, Week 0) [IU/L] | Aspartate transaminase levels ([2]; Normal chow, Week 0) [IU/L] | Alanine transaminase levels ([2]; Normal chow, Week 3) [IU/L] | Aspartate transaminase levels ([2]; Normal chow, Week 3) [IU/L] | Alanine transaminase levels ([2]; Normal chow, Week 6) [IU/L] | Aspartate transaminase levels ([2]; Normal chow, Week 6) [IU/L] | other results |
| --- | --- | --- | --- | --- | --- | --- | --- | --- | --- | --- | --- | --- | --- | --- | --- | --- | --- | --- | --- | --- | --- |
| ISIS 141923: CCTTCCCTGAAGGTTCCTCC, 5-10-5 MOE gapmer, a control oligonucleotide which has no known murine target (sugars from the 5' end e5 d10 e5, backbone and methylation of C not given here) [reference compound] | 3.1 | 8.4 | 24.8 | 47.1 | 16.6 | 0.57 |  |  |  |  |  |  |  |  |  |  |  |  |  |  |  |
| ISIS 349511: 5-10-5 MOE gapmer CCCGACCTCCTTGGAGACTT (sugars from the 5' end e5 d10 e5, backbone and methylation of C not given here) |  |  |  |  |  |  | 88 | 89 | 28 | 49 | 28 | 44 | 66 | 123 | 16 | 89 | 22 | 47 | 22 | 81 | Kidney weight ([3]; Cholesterol chow): 305 mg; Liver weight ([3]; Cholesterol chow): 1.4 g; Spleen weight ([3]; Cholesterol chow): 80 mg; Kidney weight ([3]; Normal chow): 248 mg; Liver weight ([3]; Normal chow): 1.0 g; Spleen weight ([3]; Normal chow): 74 mg |
| ISIS 349517: 5-10-5 MOE gapmer CAGCACTTTAATGCCAGTGG (sugars from the 5' end e5 d10 e5, backbone and methylation of C not given here) | 2.1 | 15.6 | 31.3 | 12.8 | 38.1 | 0.96 | 98 | 95 | 19 | 54 | 56 | 72 | 76 | 113 | 17 | 75 | 24 | 61 | 158 | 196 | Kidney weight ([3]; Cholesterol chow): 317 mg; Liver weight ([3]; Cholesterol chow): 1.8 g; Spleen weight ([3]; Cholesterol chow): 93 mg; Kidney weight ([3]; Normal chow): 279 mg; Liver weight ([3]; Normal chow): 1.6 g; Spleen weight ([3]; Normal chow): 113 mg |

— US20130053430A1, “MODULATION OF CETP EXPRESSION” (Isis Pharmaceuticals, Inc., priority 2010, published 2013)
